Source: ChEMBL document CHEMBL5620406, “Synthesis and biological evaluation of novel pyrazole amides as potent mitochondrial complex I inhibitors” (Eur J Med Chem, 2023)

Columns and labels:
HCT-116 [1] = test: Induction of mitochondrial dysfunction in human HCT-116 cells assessed as attenuation of ATP coupling oxygen consumption rate incubated for 24 hrs by Seahorse XFe24 analyzer; format: functional, cell-based; conditions: dose 2-10 nM
[2] = Acute toxicity in BALB/c mouse assessed as decrease in behavioral activity at 68 mg/kg, ip measured for 6 days; format: organism-based; conditions: in vivo, 144 h, time 6 day
HCT-116 [3] = test: Induction of mitochondrial dysfunction in human HCT-116 cells assessed as attenuation of basal oxygen consumption incubated for 24 hrs by Seahorse XFe24 analyzer; format: functional, cell-based; conditions: dose 2-10 nM
[4] = Acute toxicity in BALB/c mouse assessed as effect on NEUT level at 68 mg/kg, ip measured on day 14; format: organism-based; conditions: in vivo, 336 h, time 14 day
Homo sapiens = species: Homo sapiens; test: Inhibition of mitochondrial complex I (unknown origin) at 1 uM incubated for 15 mins by microplate reader analysis relative to control
[5] = Acute toxicity in BALB/c mouse assessed as effect on BUN level at 68 mg/kg, ip measured on day 14; format: organism-based; conditions: in vivo, 336 h, time 14 day
HCT-116 [6] = test: Induction of mitochondrial dysfunction in human HCT-116 cells assessed as attenuation of oxygen consumption rate incubated for 24 hrs by Seahorse XFe24 analyzer; format: functional, cell-based; conditions: dose 2-10 nM
[7] = Toxicity in NOD-SCID mouse xenografted with human KG-1 cells assessed as effect on MCV level at 5 mg/kg, ip qd administered 5 consecutive days per week for 24 days; format: organism-based; conditions: in vivo, 576 h, time 24 day
[8] = Acute toxicity in BALB/c mouse assessed as lung damage at 40 to 68 mg/kg, ip measured on day 14 by H and E staining based analysis; format: organism-based; conditions: in vivo, 336 h, dose 40-68 mg/kg, time 14 day

Structure (SMILES)	Activity (HCT-116 [1])	Activity [2]	Activity (HCT-116 [3])	Activity [4]	inhibition (Homo sapiens) [%]	Activity [5]	Activity (HCT-116 [6])	Activity [7]	Activity [8]
Cc1cc(C(=O)Nc2ccc(C(F)(F)F)cc2)nn1Cc1cccc(N2CCN(C(=O)C3CC3)CC2)c1	Dose-Dependent Effect	Non-Toxic	Dose-Dependent Effect	Non-Toxic	55.4	Non-Toxic	Dose-Dependent Effect	Non-Toxic	Non-Toxic
Cc1cc(C(=O)Nc2ccc(OC(F)(F)F)cc2)nn1Cc1cccc(N2CCN(C(=O)C3CC3)CC2)c1	Dose-Dependent Effect	Non-Toxic	Dose-Dependent Effect	Non-Toxic	48.6	Non-Toxic	Dose-Dependent Effect	Non-Toxic	Non-Toxic
